Legend:
Assay in all cases: GRmax, 72 h; higher = less effect;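 note: breast cell lines in 384-well plates, nine doses across a 10^4 range, Dye Drop imaging of viable cells vs DMSO and time-zero plates, GR 0 means no net growth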
[1] = system: SUM44PE
[2] = system: MDAMB330
[3] = system: MCF10A
[4] = system: HCC1187
[5] = system: UACC812
[6] = system: EFM19
[7] = system: HCC1569
[8] = system: BT549
[9] = system: AU565
[10] = system: ZR751
[11] = system: MDAMB436
[12] = system: UACC893
[13] = system: HTERT_HME1
[14] = system: MDAMB415
[15] = system: BT20

SMILES | GRmax, 72 h [1] | GRmax, 72 h [2] | GRmax, 72 h [3] | GRmax, 72 h [4] | GRmax, 72 h [5] | GRmax, 72 h [6] | GRmax, 72 h [7] | GRmax, 72 h [8] | GRmax, 72 h [9] | GRmax, 72 h [10] | GRmax, 72 h [11] | GRmax, 72 h [12] | GRmax, 72 h [13] | GRmax, 72 h [14] | GRmax, 72 h [15]
O=C1NC(=NCc2cccs2)SC1=Cc1ccc2ncccc2c1 [R0-3306] (max 10 µM) | -0.266 GR | -0.159 GR | -0.0081 GR | -0.648 GR | -0.171 GR | 0.0987 GR | -0.166 GR | -0.0782 GR | -0.185 GR | 0.51 GR | 0.0289 GR | 0.376 GR | -0.107 GR | 0.914 GR | -0.274 GR
CNCc1ccc(-c2[nH]c3cc(F)cc4c3c2CCNC4=O)cc1 [Rucaparib] (max 10 µM) | 0.867 GR | 0.423 GR | 0.874 GR | 0.802 GR | 0.661 GR | 0.96 GR | 0.75 GR | 0.91 GR | 0.718 GR | 0.835 GR | 0.222 GR | 0.502 GR | 0.785 GR | 0.642 GR | 0.875 GR
CC1(N)CCN(c2cnc(-c3cccc(Cl)c3Cl)c(N)n2)CC1 [SHP099] (max 10 µM) | 0.807 GR | 0.444 GR | 0.571 GR | 0.77 GR | 0.651 GR | 0.992 GR | 0.92 GR | 0.825 GR | 0.97 GR | 0.829 GR | 0.941 GR | 0.703 GR | 0.606 GR | 0.75 GR | 0.914 GR
CN1CCN(CCOc2cc(OC3CCOCC3)c3c(Nc4c(Cl)ccc5c4OCO5)ncnc3c2)CC1 [Saracatinib/AZD0530] (max 10 µM) | 0.381 GR | 0.0209 GR | 0.148 GR | 0.15 GR | -0.847 GR | 0.139 GR | 0.161 GR | 0.556 GR | 0.147 GR | 0.328 GR | 0.724 GR | 0.141 GR | 0.46 GR | 0.324 GR | 0.31 GR
Cc1cc(C(C)Nc2ccccc2)c2nc(N3CCOCC3)cc(=O)n2c1 (stereo not given) [TGX221] (max 10 µM) | 1.04 GR | 0.858 GR | 0.951 GR | 0.46 GR | 0.0432 GR | 0.843 GR | 0.774 GR | 0.81 GR | 0.607 GR | 0.239 GR | 0.722 GR | 0.939 GR | 1.03 GR | 0.184 GR | 1.02 GR
CN(C)C/C=C/C(=O)Nc1ccc(C(=O)Nc2cccc(Nc3ncc(Cl)c(-c4c[nH]c5ccccc45)n3)c2)cc1 [THZ1] (max 1 µM) | -0.292 GR | -0.945 GR | -0.525 GR | -0.852 GR | -0.348 GR | -0.293 GR | -0.325 GR | -0.312 GR | -0.64 GR | -0.163 GR | -0.0798 GR | -0.525 GR | -0.455 GR | -0.421 GR | -0.385 GR
CN(C)C/C=C/C(=O)Nc1ccc(C(=O)N2CCC[C@@H](Nc3ncc(Cl)c(-c4c[nH]c5ccccc45)n3)C2)cc1 [THZ531] (max 1 µM) | -0.203 GR | -0.968 GR | -0.625 GR | -0.852 GR | 0.556 GR | -0.557 GR | -0.155 GR | -0.349 GR | -0.527 GR | -0.242 GR | 0.018 GR | -0.417 GR | -0.217 GR | -0.344 GR | 0.637 GR
CN(C)C/C=C/C(=O)Nc1ccc(C(=O)Nc2cccc(Nc3cc(-c4c[nH]c5ccccc45)ncn3)c2)cc1 [THZ-P1-2] (max 10 µM) | -0.518 GR | -0.777 GR | -0.181 GR | 0.283 GR | -0.371 GR | 0.124 GR | -0.359 GR | 0.175 GR | -0.648 GR | 0.262 GR | -0.278 GR | -0.761 GR | 0.566 GR | -0.513 GR | -0.623 GR
Cc1nc(-c2cn3c(n2)-c2ccc(-c4cnn(C(C)(C)C(N)=O)c4)cc2OCC3)n(C(C)C)n1 [Taselisib/GDC0032] (max 10 µM) | -0.392 GR | -0.924 GR | 0.0593 GR | -0.0769 GR | -0.636 GR | -0.143 GR | -0.121 GR | 0.095 GR | -0.531 GR | -0.0193 GR | 0.243 GR | -0.898 GR | 0.0336 GR | -0.792 GR | -0.375 GR
O=C1NC(=O)[C@@H](c2cn3c4c(cccc24)CCC3)[C@@H]1c1c[nH]c2ccccc12 [Tivantinib/ARQ197] (max 10 µM) | -0.338 GR | -0.321 GR | -0.15 GR | -0.761 GR | -0.84 GR | -0.592 GR | -0.11 GR | -0.265 GR | -0.514 GR | -0.0475 GR | -0.271 GR | -0.248 GR | -0.161 GR | -0.184 GR | -0.488 GR
Nc1ccc(-c2ccc3ncc4ccc(=O)n(-c5cccc(C(F)(F)F)c5)c4c3c2)cn1 [Torin2] (max 1 µM) | -0.556 GR | -0.84 GR | 0.128 GR | -0.0468 GR | -0.817 GR | -0.0622 GR | -0.0827 GR | -0.0209 GR | -0.39 GR | -0.0631 GR | 0.123 GR | -0.828 GR | 0.0764 GR | -0.372 GR | -0.289 GR
CC[C@@H]1C(=O)N(C)c2cnc(Nc3ccc(C(=O)N[C@H]4CC[C@H](N5CCN(CC6CC6)CC5)CC4)cc3OC)nc2N1C(C)C [Volasertib/BI6727] (max 1 µM) | -0.288 GR | -0.261 GR | -0.0887 GR | -0.708 GR | -0.496 GR | -0.577 GR | 0.0147 GR | -0.229 GR | -0.473 GR | -0.17 GR | -0.179 GR | -0.424 GR | -0.0817 GR | -0.314 GR | -0.534 GR
O=C(CCCCCCC(=O)Nc1ccccc1)NO [Vorinostat] (max 10 µM) | -0.427 GR | -0.872 GR | 0.0566 GR | -0.467 GR | -0.487 GR | -0.248 GR | -0.294 GR | 0.113 GR | -0.491 GR | -0.0452 GR | 0.033 GR | -0.337 GR | 0.0551 GR | -0.503 GR | -0.113 GR
C=CC(=O)Nc1ccc(C(=O)Nc2[nH]nc3c2CN(C(=O)N[C@H](CN(C)C)c2ccccc2)C3(C)C)cc1 [YKL-5-124] (max 10 µM) | -0.448 GR | -0.765 GR | -0.162 GR | -0.635 GR | -0.403 GR | 0.0431 GR | -0.164 GR | -0.58 GR | -0.563 GR | 0.13 GR | -0.0111 GR | -0.626 GR | -0.144 GR | -0.0129 GR | -0.153 GR

Reference: the supplement of paper PMC9663587
